Cc1ccccc1C(=O)O
Settings | solubility (mole fraction)
in DMAc, 307.65 K | 0.0781
in DMAc, 309.65 K | 0.0831
in DMAc, 311.25 K | 0.0866
in DMAc, 313.15 K | 0.0964
in DMAc, 314.35 K | 0.106
in DMAc, 317.65 K | 0.121
in DMAc, 320.25 K | 0.133
in DMAc, 321.85 K | 0.143
in DMAc, 325.25 K | 0.168
in DMAc, 327.55 K | 0.187
in DMAc, 330.25 K | 0.21
in DMAc, 332.65 K | 0.231
in DMAc, 334.35 K | 0.248
in DMAc, 336.15 K | 0.264
in DMAc, 337.35 K | 0.28
in DMAc, 338.95 K | 0.291
in DMAc, 340.35 K | 0.309
in DMAc, 341.15 K | 0.327
in DMAc, 342.05 K | 0.344
in DMAc, 343.15 K | 0.362
in DMAc, 344.35 K | 0.384
in DMF, 291.15 K | 0.329
in DMF, 295.85 K | 0.342
in DMF, 299.95 K | 0.357
in DMF, 303.75 K | 0.371
in DMF, 307.65 K | 0.39
in DMF, 311.55 K | 0.407
in DMF, 315.55 K | 0.423
in DMF, 319.45 K | 0.445
in DMF, 323.15 K | 0.461
in DMF, 327.25 K | 0.481
in DMF, 331.35 K | 0.498
in DMSO, 294.05 K | 0.497
in DMSO, 299.65 K | 0.514
in DMSO, 302.95 K | 0.523
in DMSO, 306.35 K | 0.534
in DMSO, 308.35 K | 0.537
in DMSO, 310.85 K | 0.542
in DMSO, 313.15 K | 0.548
in DMSO, 315.15 K | 0.557
in DMSO, 319.65 K | 0.57
in DMSO, 323.65 K | 0.581
in DMSO, 327.65 K | 0.591
in DMSO, 330.05 K | 0.6
in DMSO, 332.15 K | 0.608
in DMSO, 334.55 K | 0.617
in NMP, 288.95 K | 0.449
in NMP, 292.95 K | 0.455
in NMP, 296.95 K | 0.471
in NMP, 300.65 K | 0.49
in NMP, 304.65 K | 0.499
in NMP, 308.65 K | 0.51
in NMP, 312.65 K | 0.518
in NMP, 316.65 K | 0.531
in NMP, 321.35 K | 0.542
in NMP, 326.35 K | 0.559
in acetonitrile, 299.15 K | 0.314
in acetonitrile, 300.25 K | 0.316
in acetonitrile, 302.95 K | 0.323
in acetonitrile, 305.55 K | 0.329
in acetonitrile, 310.65 K | 0.34
in acetonitrile, 314.35 K | 0.346
in acetonitrile, 315.45 K | 0.35
in acetonitrile, 319.25 K | 0.36
in acetonitrile, 322.65 K | 0.369
in acetonitrile, 325.55 K | 0.378
in acetonitrile, 329.15 K | 0.386
in acetonitrile, 331.75 K | 0.393
in acetonitrile, 335.15 K | 0.401
in acetonitrile, 338.15 K | 0.409
in n-methylformamide, 294.95 K | 0.276
in n-methylformamide, 298.15 K | 0.286
in n-methylformamide, 303.65 K | 0.303
in n-methylformamide, 307.95 K | 0.32
in n-methylformamide, 312.95 K | 0.343
in n-methylformamide, 318.05 K | 0.365
in n-methylformamide, 322.35 K | 0.379
in n-methylformamide, 326.15 K | 0.392
in n-methylformamide, 330.15 K | 0.407
in n-methylformamide, 334.35 K | 0.434
in propionic acid, 296.35 K | 0.155
in propionic acid, 300.35 K | 0.179
in propionic acid, 303.65 K | 0.198
in propionic acid, 307.65 K | 0.212
in propionic acid, 311.25 K | 0.232
in propionic acid, 314.85 K | 0.253
in propionic acid, 318.35 K | 0.273
in propionic acid, 322.45 K | 0.301
in propionic acid, 326.05 K | 0.334
in propionic acid, 330.25 K | 0.363
in propionic acid, 334.15 K | 0.397
